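In this assay, cells in 96-well plates receive the compound at five concentrations for 48 hours. Endpoints are linearly interpolated between the surrounding concentrations. Abbreviation: GI50, concentration required for 50% inhibition of growth.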 Activity calls are given as the source filed them. No stated cut-off is given here; in the data, active = GI50 up to about 1.1 µM and inactive = higher. A value given as a limit tells only on which side of the number the result lay.

Among the test systems are HCT-15; SF-268; HT-29; T47D; 786-0; MOLT-4; Hs-578T; SF-295; NCI-H522; OVCAR-8; SK-MEL-2; SK-MEL-28; OVCAR-4; MDA-MB-435; TK-10; M14; HCC 2998; BT-549; LOX IMVI; NCI-H460.
Assay in all cases: inhibition of tumour cell growth, NCI panel, 48 h

For `Nc1nc(N)c2ncn(-c3ccc(Cl)c(Cl)c3)c2n1`, the GI50 was 26 µM with HCT-15; 31.7 µM (inactive) with SF-268; 22.2 µM (inactive) in the assay with HT-29; 42.1 µM (inactive) with T47D; 14.1 µM (inactive) in the assay with 786-0; 12.2 µM (inactive) in the assay with MOLT-4. Besides, the GI50 in the assay on Hs-578T is 15 µM (inactive); in the assay on SF-295 it was 28.1 µM (inactive); in the assay with NCI-H522, 28.4 µM (inactive); with OVCAR-8 it was 24.5 µM (inactive); with SK-MEL-2, 12.4 µM (inactive); in the assay on SK-MEL-28, 60.5 µM (inactive). For the same molecule, the GI50 in the assay with OVCAR-4 was 33.3 µM (inactive); in the assay on MDA-MB-435 it was 33.7 µM (inactive); in the assay with TK-10 it was 16.7 µM (inactive); in the assay with M14 it was 42.7 µM (inactive); with HCC 2998, 27.4 µM (inactive); in the assay on BT-549, 21.9 µM (inactive).

Take `O=C1c2cccc([N+](=O)[O-])c2C(=O)N1c1ncn[nH]1`: the GI50 with HCT-15 is > 100 µM; in the assay with SF-268, 37 µM (inactive); with HT-29, > 100 µM (inactive); in the assay with T47D, > 100 µM (inactive); in the assay on 786-0, 58.1 µM (inactive); in the assay with MOLT-4, > 100 µM (inactive). For the same molecule, the GI50 in the assay with Hs-578T is 36.4 µM (inactive); in the assay on SF-295, 51.5 µM (inactive); in the assay with NCI-H522, > 100 µM (inactive); in the assay with LOX IMVI, > 100 µM (inactive); in the assay on OVCAR-8, 79.3 µM (inactive); in the assay with SK-MEL-2, 41.2 µM (inactive). For the same molecule, the GI50 in the assay with SK-MEL-28 is > 100 µM (inactive); with OVCAR-4, > 100 µM (inactive); with NCI-H460 it was > 100 µM (inactive); with MDA-MB-435, > 100 µM (inactive); with TK-10 it was 27.2 µM (inactive); with M14 it was > 100 µM (inactive). In addition, the GI50 in the assay with BT-549 is 28.2 µM (inactive).

Turning to `COc1ccc([C@@]23OC[C@@H]4[C@@H](OC[C@@H]42)c2cc(OC)c(OC)cc23)cc1OC`, the GI50 in the assay with HCT-15 is > 100 µM; in the assay with T47D, > 100 µM (inactive); with 786-0 it was > 100 µM (inactive); in the assay with MOLT-4, > 100 µM (inactive); with SF-295 it was > 100 µM (inactive); with NCI-H522, > 100 µM (inactive). Besides, the GI50 in the assay on LOX IMVI, in the assay with SK-MEL-2, in the assay with SK-MEL-28, in the assay on OVCAR-4, in the assay with NCI-H460 and with MDA-MB-435 was > 100 µM (inactive) each time. Moreover, the GI50 with TK-10, in the assay with M14, in the assay with HCC 2998 and in the assay on BT-549 was > 100 µM (inactive) in each case.

Turning to `CC(C)(C)c1cc(C2COC(c3cc(C(C)(C)C)c(O)c(C(C)(C)C)c3)CO2)cc(C(C)(C)C)c1O` (stereo not drawn), the GI50 with HCT-15 was > 100 µM; in the assay with SF-268, > 100 µM (inactive); in the assay on HT-29 it was > 100 µM (inactive); in the assay on T47D, > 100 µM (inactive); in the assay on 786-0, > 100 µM (inactive); in the assay with Hs-578T, > 100 µM (inactive). For the same molecule, the GI50 with SF-295, in the assay on NCI-H522, in the assay on LOX IMVI, in the assay on OVCAR-8, with SK-MEL-2 and in the assay on SK-MEL-28 was > 100 µM (inactive) in each case. Further, the GI50 in the assay on OVCAR-4, with MDA-MB-435, with TK-10, with M14 and with BT-549 was > 100 µM (inactive) each time.

Turning to `CO[C@H]1C[C@](C)(O)Cc2cc3c(c(O)c21)C(=O)c1c(O)cc2c(c1C3=O)O[C@@H]1O[C@@]2(C)[C@H](O)[C@@H](N(C)C)[C@@H]1O`, the GI50 is 1.23 µM in the assay with HCT-15; 1.22 µM (inactive) with SF-268; 1.94 µM (inactive) with HT-29; 0.818 µM (active) in the assay on T47D; 0.524 µM (active) in the assay with 786-0; 5.25 µM (inactive) with Hs-578T. Moreover, the GI50 with SF-295 was 0.284 µM (active); with NCI-H522, 1.04 µM (active); in the assay on OVCAR-8 it was 0.9 µM (active); in the assay with SK-MEL-2, 2.43 µM (inactive); in the assay with SK-MEL-28 it was 5.82 µM (inactive); with OVCAR-4, 4.11 µM (inactive). Further, the GI50 with NCI-H460 is 0.0295 µM (active); in the assay on MDA-MB-435, 1.73 µM (inactive); with TK-10, 6.98 µM (inactive); in the assay with M14, 1.16 µM (inactive); with HCC 2998, 2.15 µM (inactive); in the assay with BT-549, 2.05 µM (inactive).

Take `COc1cc2c3c(n(C)c(=O)c2cc1OC)-c1cc2c(cc1/C3=C\CCCCl)OCO2`: the GI50 with HCT-15 was > 100 µM; in the assay with SF-268, 43.6 µM (inactive); with HT-29 it was 39.7 µM (inactive); in the assay with T47D, 30.3 µM (inactive); in the assay with 786-0 it was 16.7 µM (inactive); in the assay on MOLT-4 it was 6.68 µM (inactive). Besides, the GI50 is 47.4 µM (inactive) in the assay with Hs-578T; 19.9 µM (inactive) in the assay on SF-295; 20.8 µM (inactive) in the assay on NCI-H522; 39 µM (inactive) in the assay with LOX IMVI; 49.4 µM (inactive) in the assay with OVCAR-8; 25.5 µM (inactive) in the assay with SK-MEL-2. For the same molecule, the GI50 with SK-MEL-28 is 89.7 µM (inactive); with OVCAR-4, 49.7 µM (inactive); in the assay on NCI-H460 it was 43.8 µM (inactive); in the assay with TK-10, 20.1 µM (inactive); with M14, 36.9 µM (inactive); in the assay on HCC 2998, 23 µM (inactive). Also, the GI50 in the assay on BT-549 was 20.5 µM (inactive).

On to `Cn1c(=O)c2c(nc3n2CCC(=O)N3CCCCl)n(C)c1=O`, for which the GI50 in the assay with HCT-15 was > 100 µM; in the assay on SF-268 it was > 100 µM (inactive); in the assay with HT-29 it was > 100 µM (inactive); with T47D, > 100 µM (inactive); in the assay on 786-0, > 100 µM (inactive); in the assay on MOLT-4, > 100 µM (inactive). For the same molecule, the GI50 in the assay on Hs-578T, with SF-295, with LOX IMVI, in the assay with OVCAR-8, in the assay on SK-MEL-2 and in the assay with SK-MEL-28 was > 100 µM (inactive) throughout. Further, the GI50 with OVCAR-4, in the assay with NCI-H460, in the assay on MDA-MB-435, in the assay with TK-10, with M14 and in the assay with HCC 2998 was > 100 µM (inactive) throughout. The GI50 with BT-549 is > 100 µM (inactive).

Turning to `COC1(C2c3ccccc3CCN2C(=O)OC(C)(C)C)C(=O)C(c2ccccc2)=C1N(C)C` (stereo not drawn), the GI50 in the assay on HCT-15 was 30.9 µM; with SF-268 it was 45.1 µM (inactive); in the assay with HT-29 it was 18.1 µM (inactive); in the assay with T47D, 53.7 µM (inactive); in the assay with 786-0, 26.9 µM (inactive); with MOLT-4, 43.3 µM (inactive). Further, the GI50 in the assay with Hs-578T was 32.7 µM (inactive); in the assay on SF-295 it was 30.8 µM (inactive); in the assay with NCI-H522, 21.2 µM (inactive); in the assay on OVCAR-8 it was 68.7 µM (inactive); with SK-MEL-2 it was 27.3 µM (inactive); in the assay with SK-MEL-28 it was 62.4 µM (inactive). Besides, the GI50 with OVCAR-4 is 46.9 µM (inactive); in the assay on NCI-H460, 29.8 µM (inactive); in the assay on MDA-MB-435 it was 22.9 µM (inactive); with TK-10 it was 48.2 µM (inactive); with M14, 27.3 µM (inactive); in the assay with BT-549 it was 27.9 µM (inactive).

In the case of `CC12CCCC(O)C1CCC1=CC3(CCC12)SCCS3` (stereo not drawn), the GI50 is > 10 µM with HCT-15; > 10 µM (inactive) in the assay with SF-268; > 10 µM (inactive) with HT-29; > 10 µM (inactive) in the assay on T47D; > 10 µM (inactive) in the assay on 786-0; > 10 µM (inactive) with SF-295. The GI50 with NCI-H522, in the assay with LOX IMVI, in the assay on OVCAR-8, in the assay with SK-MEL-28, with OVCAR-4 and in the assay with MDA-MB-435 was > 10 µM (inactive) in each case. Moreover, the GI50 in the assay with TK-10, in the assay with M14, with HCC 2998 and with BT-549 was > 10 µM (inactive) each time.

In the case of `CNC(=O)OCC1=C(COC(=O)NC)C(C)N(c2ccccc2)C1` (stereo not drawn), the GI50 in the assay with HCT-15 is 31 µM; in the assay on SF-268, 37.7 µM (inactive); in the assay on HT-29 it was 22.6 µM (inactive); with T47D, 26.7 µM (inactive); in the assay with 786-0, 47.2 µM (inactive); in the assay with MOLT-4, 23 µM (inactive). Also, the GI50 was 43.4 µM (inactive) in the assay with Hs-578T; 33.7 µM (inactive) in the assay with SF-295; 32.7 µM (inactive) with LOX IMVI; 36.6 µM (inactive) with OVCAR-8; 22.6 µM (inactive) in the assay on SK-MEL-2; 35.3 µM (inactive) with SK-MEL-28. For the same molecule, the GI50 in the assay on OVCAR-4 is 37.8 µM (inactive); in the assay with NCI-H460, 29 µM (inactive); in the assay with MDA-MB-435, 38.3 µM (inactive); in the assay with TK-10, 24.5 µM (inactive); with M14, 30.1 µM (inactive); in the assay with HCC 2998, 25.2 µM (inactive). Further, in the assay on BT-549, the GI50 was 50.9 µM (inactive).

Turning to `Cc1cc2nc(N3C(=O)/C(=C/c4ccc(N(C)C)cc4)N=C3c3ccccc3)sc2cc1C`, the GI50 in the assay on HCT-15 was 32.5 µM; with SF-268 it was 40 µM (inactive); in the assay on HT-29, 18.5 µM (inactive); in the assay with T47D it was 31.4 µM (inactive); in the assay with 786-0, 20.5 µM (inactive); with MOLT-4, 1.14 µM (inactive). The GI50 is 30.3 µM (inactive) in the assay with Hs-578T; 33.6 µM (inactive) with SF-295; 30.1 µM (inactive) in the assay with LOX IMVI; 32.3 µM (inactive) in the assay on OVCAR-8; 24.1 µM (inactive) in the assay on SK-MEL-2; 51.9 µM (inactive) in the assay with SK-MEL-28. Moreover, the GI50 in the assay on OVCAR-4 was 29.4 µM (inactive); in the assay on NCI-H460 it was 23 µM (inactive); in the assay with MDA-MB-435 it was 7.46 µM (inactive); in the assay on TK-10 it was 58.9 µM (inactive); with M14, 26.7 µM (inactive); with HCC 2998 it was 18.9 µM (inactive). For the same molecule, the GI50 in the assay with BT-549 was 44.5 µM (inactive).
